This is an account of results in US5576303A, “Energy-supplementing saccharide source and its uses” (priority 1993, dated 1996).

A short description of data set [1]: Digestion test in vitro (enzyme derived from rat small intestinal mucous membrane). The data set is classed as in vitro ADME. To be noted: small intestinal mucosa enzyme, Tables 4 and 5, rat small intestinal enzyme, read-out: Decomposition rate. Here is the method:
(§1) By using a trehalose solution of a high-purity hydrous crystalline trehalose prepared by the method in Experiment 1-2, a digestion test of trehalose was carried out in vitro in accordance with the method as reported by K. Okada et al. in JOURNAL OF JAPANESE SOCIETY OF NUTRITION AND FOOD SCIENCE, Vol.43, No.1, pp.23-29 (1990). The digestibility of trehalose was evaluated based on the decomposition rate (%) calculated by the following equation: [formula]
As evident from the results in Table 4, trehalose was not substantially hydrolyzed by the enzyme derived from rat small intestinal mucous membrane. By using the rat enzyme, disaccharides were tested for their digestibility similarly as above.

The conditions of data set [2]: cited from earlier work.
For data set [3] the following is noted: improper dose or route of administration; cited from earlier work.
In data set [4] the test system is living bodies. To be noted: prior art; cited from earlier work.
Data set [5] can be described thus: Isotonicity to rabbit blood. Type of data set: physicochemical. Here is the method: (§2) A hydrous crystalline trehalose prepared by the method in Experiment 1-2 was dissolved in a refined water, and the resultant solution was membrane filtered, concentrated and recrystallized to obtain a pyrogen-free hydrous crystalline trehalose. The crystal thus obtained was dissolved in injectable distilled water into a 10 w/v % solution isotonic to rabbit blood as trehalose infusion. By using 6 rabbits, about 2-3 kg weight, the infusion was rapidly administered to their ear veins at a dose of one g/kg body weight within 1.5 min, followed by collecting their blood at a prescribed time interval, and subjecting the collected blood samples to the measurements of their sugar levels (glucose concentration (mg/dl)) and insulin levels (μU/ml). As a control, 5 w/v % glucose solution isotonic to rabbit blood was similarly administered to rabbit veins at a dose of 0.5 g/kg body weight. Each result was expressed by the mean value of the 6 rabbits, and the time courses of the blood sugar- and insulin-levels of the rabbits were respectively shown in FIGS. 3 and 4. In the figures, the solid- and dashed-lines mean the time courses of trehalose and insulin in rabbit blood, respectively.

Data set [6] relates to rabbits. To be noted: rabbit. How it is done:
as §2

Data set [7] concerns rabbits. To be noted: rabbit; for amount secreted in urine (in words): in vivo.
The subject of data set [8] is amylases. To be noted: Japanese Patent Laid-Open No. 240,758/88; cited from earlier work.
A short description of data set [9]: Digestion test in vitro (salivary amylase). The data set is classed as in vitro ADME. To be noted: Table 4, salivary amylase, read-out: Decomposition rate. How it is done: as §1
Data set [10] relates to human volunteers. Put plainly: Utilization test in vivo by oral administration (blood sugar and insulin levels). How it is done: In accordance with the method reported by H. Atsuji et al. in Journal of Clinical Nutrition, Vol.41, No.2, pp.200-208 (1972), 30 g of a hydrous crystalline trehalose prepared by the method in Experiment 1-2 was dissolved in water into a 20 w/v % aqueous trehalose solution, and prescribed amounts of which were orally administered to 6 male volunteers, 26-31-year-old. The volunteers were let blood at a prescribed time interval, and each blood sample was measured its blood sugar level, i.e. glucose concentration (mg/dl) and insulin level (μU/ml). As a control, glucose was used. The results of both levels were the mean values of 6 volunteers. FIGS. 1 and 2 show the time courses of blood sugar- and insulin-levels, respectively. In the figures, the solid- and dashed-lines mean the time courses of trehalose and insulin, respectively.

Data set [11] in a line: Acute toxicity test. The data set is classed as in vivo. To be noted: mouse, in vivo; oral, mice; "the value was not so accurate". How it is done:
(§3) By using mice, trehalose was tested for its acute toxicity by orally administering it to the mice a hydrous crystalline trehalose prepared by the method in Experiment 1-2. […] Based on the result, the LD50 was 50 g/kg or higher, though the value was not so accurate.

The subject of data set [12] is mice. Description: Acute toxicity test. The data set is classed as in vivo. To be noted: oral. Here is the method: as §3
A short description of data set [13]: Digestion test in vitro (pancreatic amylase). The data set is classed as in vitro ADME. To be noted: Table 4, pancreatic amylase, read-out: Decomposition rate. How it is done: as §1
A short description of data set [14]: Digestion test in vitro (gastric acid). Type of data set: in vitro ADME. To be noted: Table 4, gastric acid, read-out: Decomposition rate. How it is done: as §1
Where [15] appears, read: 20 w/v % aqueous solution, 6 male volunteers, mean.

Molecules are shown by their SMILES. Like-named read-outs stand apart in the source and are kept apart here.

As usually defined, the LD50 is the dose at which mortality reaches 50%. The low end stands for a more toxic substance, the high end for a less toxic substance.

Turning to `OC[C@H]1O[C@@H](O[C@H]2[C@H](O)[C@@H](O)C(O)O[C@@H]2CO)[C@H](O)[C@@H](O)[C@@H]1O` (some centres unmarked) [Cellobiose], in data set [1], the metabolised was determined as 1.2%.

On to `OC[C@H]1O[C@@](CO)(O[C@H]2O[C@H](CO)[C@@H](O)[C@H](O)[C@H]2O)[C@@H](O)[C@@H]1O` [Sucrose], for which the “hydrolysis under acidic conditions” value in data set [2] is reported as “readily hydrolyzed”. Besides, in data set [1], the metabolised was 25.1%.

Turning to `OC[C@@H](O)[C@@H](O)[C@H](O)[C@@H](O)CO` [sorbitol], the diarrhea entry in data set [3] is given as “may cause serious diarrhea”.

For the compound `OC[C@@H](O)[C@H](O)[C@@H](O)CO` [xylitol], in data set [3], the diarrhea entry was “may cause serious diarrhea”.

Take `OC[C@H]1O[C@@H](O[C@H]2[C@H](O)[C@@H](O)C(O)O[C@@H]2CO)[C@H](O)[C@@H](O)[C@H]1O` (some centres unmarked) [Lactose]: the metabolised in data set [1] was found to be 9.7%.

For the compound `OC[C@@H](O)[C@@H](O[C@@H]1O[C@H](CO)[C@H](O)[C@H](O)[C@H]1O)[C@H](O)[C@@H](O)CO` [lactitol], the “metabolism and utilization by living bodies” value in data set [4] was “not readily metabolized and utilized by living bodies”.

On to `O=C[C@H](O)[C@@H](O)[C@H](O)[C@H](O)CO` [glucose, reference compound], for which the “concentration isotonic to rabbit blood” value in data set [5] is recorded as 5 w/v %. For the same compound, the “amount secreted in urine (in words)” value in data set [6] (in vivo) and in data set [7] was “absolutely low” throughout.

As to `OC[C@H]1O[C@H](O[C@H]2[C@H](O)[C@@H](O)[C@H](O)O[C@@H]2CO)[C@H](O)[C@@H](O)[C@@H]1O` (mixture of isomers) [Maltose], the metabolised in data set [1] amounted to 80.1%.

In the case of `OC[C@H]1O[C@H](OC[C@H]2OC(O)[C@H](O)[C@@H](O)[C@@H]2O)[C@H](O)[C@@H](O)[C@@H]1O` (some centres unmarked) [Isomaltose], in data set [1], the metabolised is 13.2%.

Turning to `OC[C@H]1O[C@H](O[C@H]2O[C@H](CO)[C@@H](O)[C@H](O)[C@H]2O)[C@H](O)[C@@H](O)[C@@H]1O` [trehalose, O-α-D-glucopyranosyl α-D-glucopyranoside], in data set [8], the hydrolysis by amylases result is recorded as “not substantially hydrolyzed by amylases”. The metabolised amounted to 0% in [9], 0% in data set [13] and 1.3% in data set [1]. Moreover, in data set [10], the “assimilation, metabolism and utilization” value is “readily assimilated, metabolized and utilized by living bodies as energy source”. In data set [10] (setting [15]), the “time of maximum of blood sugar level after administration” value lay within 30 to 45 min. The “time of maximum of insulin level after administration” value in data set [10] (setting [15]) is 30 to 45 min. Moreover, the “dynamics of blood sugar- and insulin-levels against glucose” value in data set [10] (FIGS. 1 and 2) is “tended to show a time lag”; in [6] (in vivo), “tended to show a time lag”. Also, the LD50 in [11] was at least 50000 mg/kg. Further, in data set [12], the “toxicity (in words)” value is listed as “relatively-low toxicity”. In data set [12] (highest possible dose), the mortality result is “no mouse died”. Further, the “concentration isotonic to rabbit blood” value in data set [5] amounted to 10 w/v %. Moreover, the “metabolism and utilization by living bodies” value in [4] is “not substantially assimilated and utilized by the body”. In addition, in [14], the degraded was 0%. Further, the “hydrolysis, metabolism and utilization in vivo” value in [6] was “readily hydrolyzed into glucose in vivo, metabolized and utilized by living bodies as energy source”; in data set [7], “readily hydrolyzed into glucose in vivo, metabolized and utilized by the living bodies as energy source”. Moreover, the “amount secreted in urine (in words)” value in data set [6] (in vivo) and in data set [7] was “absolutely low” each time.

For `OC[C@@H](O)[C@@H](O[C@H]1O[C@H](CO)[C@@H](O)[C@H](O)[C@H]1O)[C@H](O)[C@@H](O)CO` [maltitol], the “metabolism and utilization by living bodies” value in [4] was “not readily metabolized and utilized by living bodies”.
